Test results from patent publication US20250127168A1, “METHOD FOR PATHOGENS, MICROORGANISMS, AND PARASITES INACTIVATION” (New York Blood Center, Inc., priority 2018, published 2025).

What was measured:
[1] = test system: B. cereus; experiment: Bacterial inactivation in Ringer's solution, colony agar plate count; assay type: cell-based; conditions: 100 μM, RT, 1 h treatment
Description: (§1) A panel of G+F and G-bacteria were inactivated in their respective growth medium using compound VI, compound X, and compound XIV. All cells were grown in corresponding media to middle log phase, collected by centrifugation, re-suspended in Ringer's solution (RS), and treated at RT with 100 μM of compound VI, compound X, and compound XIV, which were added to the suspension as 100× concentrate in RS. Controls received RS only. At the end of the incubation, unreacted compound VI, compound X, and compound XIV were neutralized with 10 mM sodium thiophosphate during incubation at RT for 30 min. The viable cells were enumerated using serial dilutions by standard colony agar plate count. Table 1 summarizes the typical results of 1 h treatment of E. coli, P. fluorescens, Y. enterocolitica, B. cereus, S. aureus, and S. epidermidis with compound VI, compound X, and compound XIV.

[2] = test system: Y. enterocolitica; experiment: as above; assay type: cell-based; conditions: 100 μM, RT, 1 h treatment
Description: as §1

[3] = test system: E. coli; experiment: as above; assay type: cell-based; conditions: 100 μM, RT, 1 h treatment
Description: as §1

[4] = test system: S. aureus; experiment: as above; assay type: cell-based; conditions: 100 μM, RT, 1 h treatment
Description: as §1

[5] = test system: P. fluorescens; experiment: as above; assay type: cell-based; conditions: 100 μM, RT, 1 h treatment
Description: as §1

[6] = test system: S. epidermidis; experiment: as above; assay type: cell-based; conditions: 100 μM, RT, 1 h treatment
Description: as §1

[7] = Storage stability of formulated compounds; assay type: physicochemical
Source text: The solutions of the free bases of the compound of Structure I are alkaline, and can absorb atmospheric carbon dioxide, which can compromise the stability of the solutions and accelerate their hydrolysis or other degradation. The free bases of the compounds of Structure I may be stabilized by addition of small amounts of basic compounds, for example of sodium hydroxide.
The compounds of Structure I can be converted to solid solutions by quick solidification by cooling of their solution in compounds which are solid at room temperature. For example, if compound VI is added, in amount of up to 3% to melted polyethylene glycol, and the resulted solution is cooled quickly, preferably in thin film, a solid solution of compound VI is formed. […] The stability of the solid solutions can be further enhanced by addition of traces of strong bases, as for example, of sodium hydroxide. The preferred solids for the preparing of solid solution of compounds of Structure I have melting points above 40° C. and below 120° C., are well soluble in aqueous media, are neutral in chemical character, and have no adverse effect on the sample to be treated by the process, or on its intended use.

[8] = test system: B. cereus; experiment: Bacterial inactivation in WB, LB and RBCC, growth/no growth; assay type: cell-based; set-up: key: “+” Growth; “−” No growth; conditions: 6 h at RT
Description: (§2) Two G− species, Y. enterocolitica and P. fluorescens, both psychrophiles, and two G+ bacteria, S. epidermids and B. cereus, all known blood contaminants, were used in this study. All blood samples were spiked with approximately 0.1% bacterial stock suspension prepared in RS and left for equilibration at RT for 30 min. Freshly grown overnight bacterial cultures were used for each spiking. Compound VI and compound X were added to spiked blood to final concentrations of 100, 250, and 500 μM. Control samples (Ctr) received solvent only. Incubation was carried out at RT for 6 h followed by the addition of an inactivator, 100x Na thiosulfate, and additional incubation at RT for 2 h. After the incubation and quenching, aliquots were taken for serial dilutions and plate drop-counting and the bacterial growth-promoting solution (containing tryptone, peptone, yeast extract and casamino acids) was added to the remaining volumes. The growth/no growth results were confirmed by streaking agar plates.

[9] = test system: Y. enterocolitica; experiment: as above; assay type: cell-based; set-up: key: “+” Growth; “−” No growth; conditions: 6 h at RT
Description: as §2

[10] = test system: P. fluorescens; experiment: as above; assay type: cell-based; set-up: key: “+” Growth; “−” No growth; conditions: 6 h at RT
Description: as §2

[11] = test system: S. epidermidis; experiment: as above; assay type: cell-based; set-up: key: “+” Growth; “−” No growth; conditions: 6 h at RT
Description: as §2

[12] = molecular target: T1, RSV's fusion (F) protein (Human respiratory syncytial virus A, UniProt P03420); experiment: Anti-F antibody binding to treated RSV (ELISA); conditions: 100 μM, 4 hours at 40° C.
T1 construct: Sucrose gradient-purified RSV was treated with compound VI and compound X; host or cells: sucrose gradient-purified RSV virions
T1 sequence (P03420 137-574): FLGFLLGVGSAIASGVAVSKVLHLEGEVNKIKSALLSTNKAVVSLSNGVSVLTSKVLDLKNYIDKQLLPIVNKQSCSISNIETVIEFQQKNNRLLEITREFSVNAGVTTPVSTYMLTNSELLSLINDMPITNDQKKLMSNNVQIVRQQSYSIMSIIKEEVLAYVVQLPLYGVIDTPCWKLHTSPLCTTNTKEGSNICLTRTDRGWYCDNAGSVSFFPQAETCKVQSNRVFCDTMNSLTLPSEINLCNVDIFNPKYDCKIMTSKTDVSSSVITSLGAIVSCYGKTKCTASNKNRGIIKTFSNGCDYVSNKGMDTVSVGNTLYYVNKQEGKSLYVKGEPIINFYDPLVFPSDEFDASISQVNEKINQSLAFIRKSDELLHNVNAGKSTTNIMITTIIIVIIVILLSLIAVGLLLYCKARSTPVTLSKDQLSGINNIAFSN
T1 sequence (P03420 26-109): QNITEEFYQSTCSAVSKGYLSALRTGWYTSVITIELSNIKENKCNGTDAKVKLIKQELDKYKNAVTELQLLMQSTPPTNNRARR
Description: Controls included mock-treated RSV incubated for 4 hours at 40° C. and non-treated virus kept at 4°° C. ELISA assay was performed according procedure described by Schmidt et al, J Virol. […] Eight serial 1:2 dilutions in PBS were plated (50 µl/well) in triplicates into 96-well plates, and incubated overnight at 4° C. The wells were washed with PBS and blocked with PBS/1% BSA. Anti-protein F antibody was added, and the mixture was incubated for 2 h, followed by washings and the addition of anti-mouse IgG HRP conjugate. After another round of washing, TMB substrate and sulfuric acid were added and readings were conducted using ELISA Reader SPECTRAmax PLUS (Molecular Devices,

[13] = test system: porcine parvovirus (PPV); experiment: Viral inactivation in RS, endpoint dilution assay; assay type: cell-based; conditions: 100 μM, RT
Description: The porcine parvovirus (PPV) was inactivated by using compound VI and compound X. Treatments were conducted in RS (pH 6.9) at RT with 100 μM using compound VI and compound X and 10% virus spike. Residual compounds were quenched by incubation with 10 mM Na2S2O3 for 2 hours at RT. Virus titers, expressed as Log10TCID50/mL, were determined using the standard endpoint dilution assay with permissive to PPV porcine testis cells. After the incubation of indicator cells for 6 days, infected wells were counted under microscope by visual inspection. To confirm the results, secondary infection using conditioned media from the first plate wells as samples was conducted.

CN(CCCCN(C)CCCN1CC1)CCCN(C)CCCN1CC1 [Compound X]
Titer [1]: ≤1.00 Log10CFU/mL | Titer [2]: 4.85 Log10CFU/mL | Titer [3]: 3.98 Log10CFU/mL | Titer [4]: 6.70 Log10CFU/mL | Titer [5]: ≤1.00 Log10CFU/mL | Titer [6]: 7.32 Log10CFU/mL | long term storage stability ([7]; glycerol solution, addition of 0.1% of sodium hydroxide): significantly stabilized | Growth / No growth ([8]; LB, 100 μM): − | Growth / No growth ([8]; LB, 250 μM): − | Growth / No growth ([8]; RBCC, 250 μM): − | Growth / No growth ([8]; WB, 100 μM): − | Growth / No growth ([8]; WB, 250 μM): − | Growth / No growth ([8]; WB, 500 μM): − | Growth / No growth ([9]; LB, 100 μM): − | Growth / No growth ([9]; LB, 250 μM): − | Growth / No growth ([9]; RBCC, 100 μM): − | Growth / No growth ([9]; RBCC, 250 μM): − | Growth / No growth ([9]; WB, 100 μM): − | Growth / No growth ([9]; WB, 250 μM): − | Growth / No growth ([10]; LB, 100 μM): − | Growth / No growth ([10]; LB, 250 μM): − | Growth / No growth ([10]; RBCC, 100 μM): − | Growth / No growth ([10]; RBCC, 250 μM): − | Growth / No growth ([10]; WB, 100 μM): − | Growth / No growth ([10]; WB, 250 μM): − | Growth / No growth ([11]; LB, 100 μM): − | Growth / No growth ([11]; LB, 250 μM): − | Growth / No growth ([11]; RBCC, 100 μM): − | Growth / No growth ([11]; RBCC, 250 μM): − | Growth / No growth ([11]; WB, 100 μM): − | Growth / No growth ([11]; WB, 250 μM): − | recognition of the F protein by monoclonal antibody after treatment [12]: did not change the degree of recognition of the F protein | PPV titer ([13]; RS pH 6.9, incubation 1 h): 3.09 Log10TCID50/mL | PPV titer ([13]; RS pH 6.9, incubation 3 h): 2.72 Log10TCID50/mL | PPV titer ([13]; RS pH 6.9, incubation 6 h): 0.78 Log10TCID50/mL

CN(CCCCN(C)CCCN1CC1)CCCN1CC1 [Compound VI, N^1,N^4-bis(3-(aziridin-1-yl)propyl)-N^1,N^4-dimethylbutane-1,4-diamine]
Titer [1]: 2.45 Log10CFU/mL | Titer [2]: 6.72 Log10CFU/mL | Titer [3]: 4.60 Log10CFU/mL | Titer [4]: 7.08 Log10CFU/mL | Titer [5]: 2.78 Log10CFU/mL | Titer [6]: 8.11 Log10CFU/mL | storage stability [7]: significantly higher storage stability | Growth / No growth ([8]; LB, 100 μM): − | Growth / No growth ([8]; LB, 250 μM): − | Growth / No growth ([8]; LB, 500 μM): − | Growth / No growth ([8]; RBCC, 100 μM): + | Growth / No growth ([8]; RBCC, 250 μM): − | Growth / No growth ([8]; RBCC, 500 μM): − | Growth / No growth ([8]; WB, 100 μM): + | Growth / No growth ([8]; WB, 250 μM): − | Growth / No growth ([8]; WB, 500 μM): − | Growth / No growth ([9]; LB, 100 μM): − | Growth / No growth ([9]; LB, 250 μM): − | Growth / No growth ([9]; LB, 500 μM): − | Growth / No growth ([9]; RBCC, 100 μM): − | Growth / No growth ([9]; RBCC, 250 μM): − | Growth / No growth ([9]; RBCC, 500 μM): − | Growth / No growth ([9]; WB, 100 μM): − | Growth / No growth ([9]; WB, 250 μM): − | Growth / No growth ([9]; WB, 500 μM): − | Growth / No growth ([10]; LB, 100 μM): − | Growth / No growth ([10]; LB, 250 μM): − | Growth / No growth ([10]; LB, 500 μM): − | Growth / No growth ([10]; RBCC, 100 μM): − | Growth / No growth ([10]; RBCC, 250 μM): − | Growth / No growth ([10]; RBCC, 500 μM): − | Growth / No growth ([10]; WB, 100 μM): − | Growth / No growth ([10]; WB, 250 μM): − | Growth / No growth ([10]; WB, 500 μM): − | Growth / No growth ([11]; LB, 100 μM): − | Growth / No growth ([11]; LB, 250 μM): − | Growth / No growth ([11]; LB, 500 μM): − | Growth / No growth ([11]; RBCC, 100 μM): − | Growth / No growth ([11]; RBCC, 250 μM): − | Growth / No growth ([11]; RBCC, 500 μM): − | Growth / No growth ([11]; WB, 100 μM): − | Growth / No growth ([11]; WB, 250 μM): − | Growth / No growth ([11]; WB, 500 μM): − | recognition of the F protein by monoclonal antibody after treatment [12]: did not change the degree of recognition of the F protein | PPV titer ([13]; RS pH 6.9, incubation 1 h): 2.95 Log10TCID50/mL | PPV titer ([13]; RS pH 6.9, incubation 3 h): 0.85 Log10TCID50/mL | PPV titer ([13]; RS pH 6.9, incubation 6 h): below the limit of detection and BLD
